Values quoted from earlier work, collected in patent publication US9650678B2, “Methods for identifying an increased risk of anthracycline-related cardiotoxicity” (CITY OF HOPE, priority 2012, dated 2017).

Tests used:
[1] = factor that reflects the drug's cardiotoxic potential
patients = details: package insert, doxorubicin hydrochloride injection (Teva)
CBR1 = biological target: T1, CBR1 (Homo sapiens, UniProt P16152)
T1 sequence (P16152 1-277): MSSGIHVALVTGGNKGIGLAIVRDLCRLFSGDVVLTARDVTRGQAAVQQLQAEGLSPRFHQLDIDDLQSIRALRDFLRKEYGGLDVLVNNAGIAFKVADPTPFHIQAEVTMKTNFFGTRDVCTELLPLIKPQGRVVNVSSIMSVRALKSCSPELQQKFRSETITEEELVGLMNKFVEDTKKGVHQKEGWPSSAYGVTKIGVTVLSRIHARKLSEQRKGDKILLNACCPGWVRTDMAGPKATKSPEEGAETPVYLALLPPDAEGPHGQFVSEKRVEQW

Compound	Conversion factor to Doxorubicin Isotoxic Dose [1]	total cumulative dose in excess of which risk of potentially fatal congestive heart failure increases rapidly (patients)	rate of doxorubicinol synthesis, fold higher (CBR1) [fold]	synthesis of doxorubicinol, times faster (CBR3) [times]
COc1cccc2c1C(=O)c1c(O)c3c(c(O)c1C2=O)C[C@@](O)(C(C)=O)C[C@@H]3O[C@H]1C[C@H](N)[C@H](O)[C@H](C)O1 [Daunomycin]	0.833 (⅚)			
COc1cccc2c1C(=O)c1c(O)c3c(c(O)c1C2=O)C[C@@](O)(C(=O)CO)C[C@@H]3O[C@H]1C[C@H](N)[C@H](O)[C@H](C)O1 [Doxorubicin]	1	greater than 400 mg/m^2		
COc1cccc2c1C(=O)c1c(O)c3c(c(O)c1C2=O)C[C@@](O)(C(=O)CO)C[C@@H]3O[C@H]1C[C@H](N)[C@@H](O)[C@H](C)O1 [Epirubicin]	0.67 (⅔)			
CC(=O)[C@]1(O)Cc2c(O)c3c(c(O)c2[C@@H](O[C@H]2C[C@H](N)[C@H](O)[C@H](C)O2)C1)C(=O)c1ccccc1C3=O [Idarubicin]	5			
COc1cccc2c1C(=O)c1c(O)c3c(c(O)c1C2=O)C[C@@](O)([C@@H](O)CO)C[C@@H]3O[C@H]1C[C@H](N)[C@H](O)[C@H](C)O1 [doxorubicinol]			1.5	2.6
